In patent US11254663B2 (BRISTOL-MYERS SQUIBB COMPANY, priority 2019, dated 2022):

Each compound was assayed against FXR (Homo sapiens (Human), UniProt Q96RI1) (assay: transient human FXR/Gal4-luciferase reporter assay). Details: not given.
Format: cell-based
How it was run: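 Compound exposure ran overnight at 37 °C and activity was measured as luminescence with Steady-Glo reagent. The cells were a HEK293 line stably expressing firefly luciferase under five Gal4 response elements. They were transiently transfected, one night beforehand, with a plasmid encoding Gal4 DNA-binding domain fused to the human FXR ligand-binding domain.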

FXR, sequence (Q96RI1 262-486): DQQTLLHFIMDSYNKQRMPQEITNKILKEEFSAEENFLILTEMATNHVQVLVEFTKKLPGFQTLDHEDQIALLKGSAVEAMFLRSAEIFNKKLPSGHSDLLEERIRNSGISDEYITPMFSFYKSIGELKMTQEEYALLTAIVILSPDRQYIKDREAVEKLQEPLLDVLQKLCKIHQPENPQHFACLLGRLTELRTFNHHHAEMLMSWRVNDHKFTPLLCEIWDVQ

Compound	EC50 [nM]
CC(C)(O)c1ccc(-c2cccc(N(CC34CCC(c5noc(C(C)(C)F)n5)(CC3)CC4)C(=O)NCC3(S(C)(=O)=O)CC3)c2)cc1 [Example 642]	294
CC(C)(O)c1ccc(-c2cccc(N(CC34CCC(c5noc(C(C)(C)F)n5)(CC3)CC4)C(=O)N3CC(O)(C(F)(F)F)C3)c2)cc1 [Example 643, N-((4-(5-(2-fluoropropan-2-yl)-1,2,4-oxadiazol-3-yl)bicyclo[2.2.2]octan-1-yl)methyl)-3-hydroxy-N-(4′-(2-hydroxypropan-2-yl)-[1,1′-biphenyl]-3-yl)-3-(trifluoromethyl)azetidine-1-carboxamide]	235
CC(C)(O)c1ccc(-c2cccc(N(CC34CCC(c5noc(C(C)(C)F)n5)(CC3)CC4)C(=O)NC3CCS(=O)(=O)CC3)c2)cc1 [Example 644, 3-(1,1-dioxidotetrahydro-2H-thiopyran-4-yl)-1-((4-(5-(2-fluoropropan-2-yl)-1,2,4-oxadiazol-3-yl)bicyclo[2.2.2]octan-1-yl)methyl)-1-(4′-(2-hydroxypropan-2-yl)-[1,1′-biphenyl]-3-yl)urea]	743
CC(C)(O)c1ccc(-c2cccc(N(CC34CCC(c5noc(C(C)(C)F)n5)(CC3)CC4)C(=O)N3CCN(CC(F)(F)F)CC3)c2)cc1 [Example 645]	229
CC(C)(O)c1ccc(-c2cccc(N(CC34CCC(c5noc(C(C)(C)F)n5)(CC3)CC4)C(=O)NCC(F)(F)CO)c2)cc1 [Example 646, 3-(2,2-difluoro-3-hydroxypropyl)-1-((4-(5-(2-fluoropropan-2-yl)-1,2,4-oxadiazol-3-yl)bicyclo[2.2.2]octan-1-yl)methyl)-1-(4′-(2-hydroxypropan-2-yl)-[1,1′-biphenyl]-3-yl)urea]	270
CC(C)(O)c1ccc(-c2cccc(N(CC34CCC(c5noc(C(C)(C)F)n5)(CC3)CC4)C(=O)NCC3(CO)CCOCC3)c2)cc1 [Example 647, 1-((4-(5-(2-fluoropropan-2-yl)-1,2,4-oxadiazol-3-yl)bicyclo[2.2.2]octan-1-yl)methyl)-3-((4-(hydroxymethyl)tetrahydro-2H-pyran-4-yl)methyl)-1-(4′-(2-hydroxypropan-2-yl)-[1,1′-biphenyl]-3-yl)urea]	581
CC(C)(O)c1ccc(-c2cccc(N(CC34CCC(c5noc(C(C)(C)F)n5)(CC3)CC4)C(=O)NCC3(O)CC3)c2)cc1 [Example 648, 1-((4-(5-(2-fluoropropan-2-yl)-1,2,4-oxadiazol-3-yl)bicyclo[2.2.2]octan-1-yl)methyl)-3-((1-hydroxycyclopropyl)methyl)-1-(4′-(2-hydroxypropan-2-yl)-[1,1′-biphenyl]-3-yl)urea]	509
CC(C)(O)c1ccc(-c2cccc(N(CC34CCC(c5noc(C(C)(C)F)n5)(CC3)CC4)C(=O)NCCN3CCOCC3)c2)cc1 [Example 649, 1-((4-(5-(2-fluoropropan-2-yl)-1,2,4-oxadiazol-3-yl)bicyclo[2.2.2]octan-1-yl)methyl)-1-(4′-(2-hydroxypropan-2-yl)-[1,1′-biphenyl]-3-yl)-3-(2-morpholinoethyl)urea]	600
CC(C)(O)c1ccc(-c2cccc(N(CC34CCC(c5noc(C(C)(C)F)n5)(CC3)CC4)C(=O)NCCC3(O)CCCC3)c2)cc1 [Example 650, 1-((4-(5-(2-fluoropropan-2-yl)-1,2,4-oxadiazol-3-yl)bicyclo[2.2.2]octan-1-yl)methyl)-3-(2-(1-hydroxycyclopentyl)ethyl)-1-(4′-(2-hydroxypropan-2-yl)-[1,1′-biphenyl]-3-yl)urea]	472

Same assay, conditions: Gal4-hFXR fusion construct, HEK293 reporter cells; response relative to 8 μM GW-4064

EC50 [nM]	Compound
2000	O=C(C1CC(O)(C(F)(F)F)C1)N(CC12CCC(C(=O)NS(=O)(=O)C3CC3)(CC1)CC2)c1cccc(-c2ccc(OC(F)F)cc2)c1 (stereo not drawn) [Example 638, N-(cyclopropylsulfonyl)-4-(((cis)-N-(4′-(difluoromethoxy)-[1,1′-biphenyl]-3-yl)-3-hydroxy-3-(trifluoromethyl)cyclobutane-1-carboxamido)methyl)bicyclo[2.2.2]octane-1-carboxamide]
221	O=C(C1CC(O)(C(F)(F)F)C1)N(CC12CCC(c3noc(-c4ccc(F)cc4)n3)(CC1)CC2)c1cccc(-c2ccc(OC(F)F)cc2)c1 (stereo not drawn) [Example 639, (cis)-N-(4′-(difluoromethoxy)-[1,1′-biphenyl]-3-yl)-N-((4-(5-(4-fluorophenyl)-1,2,4-oxadiazol-3-yl)bicyclo[2.2.2]octan-1-yl)methyl)-3-hydroxy-3-(trifluoromethyl)cyclobutane-1-carboxamide]
27	CC(C)Oc1ccc(-c2ccnc(N(CC34CCC(c5ccc(C(C)(F)F)cn5)(CC3)CC4)C(=O)[C@H]3C[C@@](C)(OC(F)F)C3)c2)cc1 [Example 640, (cis)-N-((4-(5-(1,1-difluoroethyl)pyridin-2-yl)bicyclo[2.2.2]octan-1-yl)methyl)-3-(difluoromethoxy)-N-(4-(4-isopropoxyphenyl)pyridin-2-yl)-3-methylcyclobutane-1-carboxamide]
1300	CC(C)(O)c1ccc(-c2cccc(N(CC34CCC(c5noc(C(C)(C)F)n5)(CC3)CC4)C(=O)N3CC4(C3)CS(=O)(=O)C4)c2)cc1 [Example 641, N-((4-(5-(2-fluoropropan-2-yl)-1,2,4-oxadiazol-3-yl)bicyclo[2.2.2]octan-1-yl)methyl)-N-(4′-(2-hydroxypropan-2-yl)-[1,1′-biphenyl]-3-yl)-2-thia-6-azaspiro[3.3]heptane-6-carboxamide 2,2-dioxide]
273	CC(C)(C#N)Oc1ccc(-c2cccc(N(CC34CCC(c5noc(C(C)(C)F)n5)(CC3)CC4)C(=O)N3CCC(C(C)(C)O)CC3)c2)cc1 [Example 651, N-(4′-((2-cyanopropan-2-yl)oxy)-[1,1′-biphenyl]-3-yl)-N-((4-(5-(2-fluoropropan-2-yl)-1,2,4-oxadiazol-3-yl)bicyclo[2.2.2]octan-1-yl)methyl)-4-(2-hydroxypropan-2-yl)piperidine-1-carboxamide]
379	CC(C)Oc1ccc(-c2cccc(N(CC34CCC(c5noc(C(C)(F)F)n5)(CC3)CC4)C(=O)NC3CCOCC3)c2)cc1 [Example 652, 1-((4-(5-(1,1-difluoroethyl)-1,2,4-oxadiazol-3-yl)bicyclo[2.2.2]octan-1-yl)methyl)-1-(4′-isopropoxy-[1,1′-biphenyl]-3-yl)-3-(tetrahydro-2H-pyran-4-yl)urea]
145	CC(C)Oc1ccc(-c2cc(N(CC34CCC(c5noc(C(C)(C)F)n5)(CC3)CC4)C(=O)N[C@H]3CC[C@](C)(OC(F)F)CC3)ccc2F)cc1 [Example 653, 3-((trans)-4-(difluoromethoxy)-4-methylcyclohexyl)-1-(6-fluoro-4′-isopropoxy-[1,1′-biphenyl]-3-yl)-1-((4-(5-(2-fluoropropan-2-yl)-1,2,4-oxadiazol-3-yl)bicyclo[2.2.2]octan-1-yl)methyl)urea]
169	CC(C)(Oc1ccc(-c2cccc(N(CC34CCC(c5noc(C(C)(C)F)n5)(CC3)CC4)C(=O)[C@H]3C[C@](O)(C(F)(F)F)C3)c2)cc1)C(N)=O [Example 654, (cis)-N-(4′-((1-amino-2-methyl-1-oxopropan-2-yl)oxy)-[1,1′-biphenyl]-3-yl)-N-((4-(5-(2-fluoropropan-2-yl)-1,2,4-oxadiazol-3-yl)bicyclo[2.2.2]octan-1-yl)methyl)-3-hydroxy-3-(trifluoromethyl)cyclobutane-1-carboxamide]
819	CC(C)Oc1ccc(-c2cccc(N(CC34CCC(c5cc(C6(F)CC6)nn5C)(CC3)CC4)C(=O)OC(C)(C)C(F)(F)F)c2)cc1 [Example 655, 1,1,1-trifluoro-2-methylpropan-2-yl ((4-(3-(1-fluorocyclopropyl)-1-methyl-1H-pyrazol-5-yl)bicyclo[2.2.2]octan-1-yl)methyl)(4′-isopropoxy-[1,1′-biphenyl]-3-yl)carbamate]
1060	CC(C)Oc1ccc(-c2cccc(N(CC34CCC(c5cc(C(C)(F)F)on5)(CC3)CC4)C(=O)OC(C)(C)C(F)(F)F)c2)cc1 [Example 656, 1,1,1-trifluoro-2-methylpropan-2-yl ((4-(5-(1,1-difluoroethyl)isoxazol-3-yl)bicyclo[2.2.2]octan-1-yl)methyl)(4′-isopropoxy-[1,1′-biphenyl]-3-yl)carbamate]
67	CC(C)Oc1ccc(-c2ccnc(N(CC34CCC(c5cc(C(C)(F)F)nn5C)(CC3)CC4)C(=O)OC(C)(C)C(F)(F)F)c2)cc1 [Example 657, 1,1,1-trifluoro-2-methylpropan-2-yl ((4-(3-(1,1-difluoroethyl)-1-methyl-1H-pyrazol-5-yl)bicyclo[2.2.2]octan-1-yl)methyl)(4-(4-isopropoxyphenyl)pyridin-2-yl)carbamate]
917	CC(C)Oc1ccc(-c2cccc(N(CC34CCC(c5cc(C(C)(F)F)n(C)n5)(CC3)CC4)C(=O)OC(C)(C)C(F)(F)F)c2)cc1 [Example 658, 1,1,1-trifluoro-2-methylpropan-2-yl ((4-(5-(1,1-difluoroethyl)-1-methyl-1H-pyrazol-3-yl)bicyclo[2.2.2]octan-1-yl)methyl)(4′-isopropoxy-[1,1′-biphenyl]-3-yl)carbamate]
53	CC(C)Oc1ccc(-c2cccc(N(CC34CCC(c5cc(C(C)(F)F)nn5C)(CC3)CC4)C(=O)NC(C)(C)C)c2)cc1 [Example 659, 3-(tert-butyl)-1-((4-(3-(1,1-difluoroethyl)-1-methyl-1H-pyrazol-5-yl)bicyclo[2.2.2]octan-1-yl)methyl)-1-(4′-isopropoxy-[1,1′-biphenyl]-3-yl)urea]
2190	CC(C)(C)NC(=O)N(CC12CCC(c3noc(C(C)(C)F)n3)(CC1)CC2)c1cc(-c2ccc(OC(F)F)cc2)cnn1 [Example 660]
53	CC(C)c1cc(C23CCC(CN(C(=O)OC(C)(C)C(F)(F)F)c4cc(-c5ccc(C(C)(C)O)cc5)ccn4)(CC2)CC3)n(C)n1 [Example 661, 1,1,1-trifluoro-2-methylpropan-2-yl (4-(4-(2-hydroxypropan-2-yl)phenyl)pyridin-2-yl)((4-(3-isopropyl-1-methyl-1H-pyrazol-5-yl)bicyclo[2.2.2]octan-1-yl)methyl)carbamate]
